{"source": "patent US20260022127A1", "about": "“HEXACYCLIC TOPOISOMERASE INHIBITORS HAVING CYTOTOXIC ACTIVITY ON CANCER CELLS” (priority 2022, published 2026)", "tested_on": "SKBR-3 cell line (human breast cancer)", "experiment": "2D-cytotoxicity assay of free payloads (Cell titer glow, 72 hours)", "assay_type": "cell-based", "description": "Protocol: Day 1:5,000 cells/well were plated and incubated at 37° C. overnight, unless otherwise noted.\nDay 2: Payload/vehicle control dilutions were made in respective media and added to cells. Volume added: 50 μL to each well. Starting treatment concentration was 0.1 mM for free payloads/10% for vehicle control and then diluted 10-fold down for a total of 11 treatment dilutions. Each concentration was analyzed in triplicates. Media-only wells was used as a control to calculate percent viability.\nDay 5: Cell titer glow reagent (volume: 50 μL) was added to each well, the plate was shaken for 5 mins and the luminescence was recorded.\nDrug Treatment Time: 72 hours.\nData Analysis: Percent viability was calculated by dividing the luminescence signal obtained for each treated well by the untreated well (media-only control) and multiplying by 100. Data was next transformed using X=Log (x) and then analyzed with nonlinear regression (curve fit), Dose Response inhibition−log (inhibitor) vs response (3 parameters) using PRISM software to determine the IC50 value.", "key": {"[1]": {"conditions": "Homo sapiens, SK-BR-3, SKBR-3, 5,000 cells/well, read-out: IC50"}, "[2]": {"conditions": "Homo sapiens, SK-BR-3, 72 h, SKBR-3, 5,000 cells/well"}, "[3]": {"conditions": "SKBR-3, 5,000 cells/well, read-out: IC50"}, "[4]": {"conditions": "Homo sapiens, SK-BR-3, SKBR-3, 2000 cells/well, read-out: IC50"}}, "note": "Read-outs that look alike come from different tables or passages of the source."}
{"molecule": "C#CCOC1c2c(nc3cc(F)c(C)c4c3c2CCC4)-c2cc3c(c(=O)n21)COC(=O)[C@]3(O)CC", "note": "(some centres unmarked) [Compound E-22]", "values": [{"measurement": "IC50", "setting": "[1]", "result": 0.0763, "unit": "µM"}]}
{"molecule": "CCC1(O)C(=O)OCc2c1cc1n(c2=O)Cc2c-1nc1cc(F)c(C)c3c1c2CCC3", "note": "(centres unmarked) [Compound E-10]", "values": [{"measurement": "IC50", "setting": "[2]", "result": 0.0027, "unit": "µM"}]}
{"molecule": "CC[C@@]1(O)C(=O)OCc2c1cc1n(c2=O)Cc2c-1nc1cc(F)c(C)c3c1c2C(O)CC3", "note": "(some centres unmarked) [Compound E-1]", "values": [{"measurement": "IC50", "setting": "[1]", "result": 0.00328, "unit": "µM"}]}
{"molecule": "CC[C@@]1(O)C(=O)OCc2c1cc1n(c2=O)Cc2c-1nc1cc(F)c(C)c3c1c2CCC3", "note": "[Compound E-18]", "values": [{"measurement": "IC50", "setting": "[2]", "result": 0.0011, "unit": "µM"}]}
{"molecule": "CC[C@@]1(O)C(=O)OCc2c1cc1n(c2=O)Cc2c-1nc1cc(F)c(C)c3c1c2C(=O)CC3", "note": "[Compound E-2]", "values": [{"measurement": "IC50", "setting": "Homo sapiens, SK-BR-3, 72 h, SKBR-3, 5,000 cells/well, payload in ACN:Water", "result": 0.0277, "unit": "µM"}, {"measurement": "IC50", "setting": "Homo sapiens, SK-BR-3, 72 h, SKBR-3, 5,000 cells/well, payload in DMSO", "result": 0.0732, "unit": "µM"}]}
{"molecule": "CC[C@@]1(O)C(=O)OCc2c1cc1n(c2=O)Cc2c-1nc1cc(F)c(C)c3c1c2C(OCNC(=O)CNC)CC3", "note": "(some centres unmarked) [Compound E-42]", "values": [{"measurement": "IC50", "setting": "Homo sapiens, SK-BR-3, 72 h, SKBR-3, 1000 cells/well", "result": 0.012, "unit": "µM"}]}
{"molecule": "Exatecan Mesylate [reference compound]", "values": [{"measurement": "IC50", "setting": "[3]", "result": 0.00245, "unit": "µM"}]}
{"molecule": "C=CCC1(CC=C)c2c(nc3cc(F)c(C)c4c3c2CCC4)-c2cc3c(c(=O)n21)COC(=O)[C@]3(O)CC", "note": "[Compound E-23]", "values": [{"measurement": "IC50", "setting": "[1]", "result": 3.58, "unit": "µM"}]}
{"molecule": "CC[C@@]1(O)C(=O)OCc2c1cc1n(c2=O)C(O)c2c-1nc1cc(F)c(C)c3c1c2CCC3", "note": "(some centres unmarked) [Compound E-19]", "values": [{"measurement": "IC50", "setting": "[2]", "result": 0.0757, "unit": "µM"}]}
{"molecule": "C=CCC1c2c(nc3cc(F)c(C)c4c3c2CCC4)-c2cc3c(c(=O)n21)COC(=O)[C@]3(O)CC", "note": "(some centres unmarked) [Compound E-21]", "values": [{"measurement": "IC50", "setting": "[1]", "result": 0.415, "unit": "µM"}]}
{"molecule": "CC[C@@]1(O)C(=O)OCc2c1cc1n(c2=O)C(C)(C)c2c-1nc1cc(F)c(C)c3c1c2CCC3", "note": "[Compound E-25]", "values": [{"measurement": "IC50", "setting": "[1]", "result": 3.04, "unit": "µM"}]}
{"molecule": "CC[C@@]1(OC(=O)CCCN)C(=O)OCc2c1cc1n(c2=O)Cc2c-1nc1cc(F)c(C)c3c1c2CCC3", "note": "[Compound E-43]", "values": [{"measurement": "IC50", "setting": "[4]", "result": 0.0325, "unit": "µM"}]}
{"molecule": "CC[C@@]1(O)C(=O)OCc2c1cc1n(c2=O)Cc2c-1nc1cc(F)c(C)c3c1c2C(OCNC(=O)CN)CC3", "note": "(some centres unmarked) [Compound E-35]", "values": [{"measurement": "IC50", "setting": "[2]", "result": 0.00768, "unit": "µM"}]}
{"molecule": "CC[C@@]1(O)C(=O)OCc2c1cc1n(c2=O)Cc2c-1nc1cc(F)c(C)c3c1c2[C@@H](OCNC(=O)CN)CC3", "note": "(single isomer, unassigned) [E-35b*]", "values": [{"measurement": "IC50", "setting": "[4]", "result": 0.0588, "unit": "µM"}]}
{"molecule": "CC[C@@]1(O)C(=O)OCc2c1cc1n(c2=O)Cc2c-1nc1cc(F)c(C)c3c1c2[C@@H](NC(=O)CO)CC3", "note": "[Exatecan Glycolamide, reference compound]", "values": [{"measurement": "IC50", "setting": "[3]", "result": 0.00506, "unit": "µM"}]}
{"molecule": "CC[C@@]1(O)C(=O)OCc2c1cc1n(c2=O)C2(CC=CC2)c2c-1nc1cc(F)c(C)c3c1c2CCC3", "note": "[Compound E-24]", "values": [{"measurement": "IC50", "setting": "[1]", "result": 0.517, "unit": "µM"}]}
{"molecule": "CC[C@@]1(O)C(=O)OCc2c1cc1n(c2=O)Cc2c-1nc1cc(F)c(C)c3c1c2[C@H](OCNC(=O)CN)CC3", "note": "(single isomer, unassigned) [E-35a*]", "values": [{"measurement": "IC50", "setting": "[4]", "result": 0.0281, "unit": "µM"}]}
{"molecule": "CC[C@@]1(O)C(=O)OCc2c1cc1n(c2=O)Cc2c-1nc1cc(F)c(C)c3c1c2C(=NO)CC3", "note": "[Compound E-29]", "values": [{"measurement": "IC50", "setting": "[2]", "result": 0.0155, "unit": "µM"}]}
{"molecule": "CC[C@@]1(O)C(=O)OCc2c1cc1n(c2=O)Cc2c-1nc1c(Cl)c(F)c(C)c3c1c2CCC3", "note": "[Compound E-38]", "values": [{"measurement": "IC50", "setting": "[1]", "result": 0.035, "unit": "µM"}]}
